The values that follow are results of earlier work, collected in paper PMC9001717, “Tyrosine 121 moves revealing a ligandable pocket that couples catalysis to ATP-binding in serine racemase” (Communications Biology, 2022).

This series concerns SR. Details: method as in supplementary refs 2, 11-32. The note with it: literature summary; ref supplementary refs 2, 11-32; cited from earlier work.

As to `O=C(O)C(O)C(=O)O` [2-hydroxymalonate], the Inhibition mode result is given as “Competitive”.

Turning to `O=C(O)CCC(=O)O` [Succinic], the Inhibition mode entry is on record as “Competitive”.

Turning to `N[C@@H](CCl)C(=O)O` [β-chloro-L-alanine], the Inhibition mode result is reported as “Competitive”.

Consider `O=C(O)C(F)C(=O)O` [2-fluoromalonate], for which the Inhibition mode result is “Competitive”.

In the case of `NC(CCS(=O)(=O)O)C(=O)O` (stereo not drawn) [Homocysteic acid], the Inhibition mode entry is “Competitive”.

On to `NC(=O)C[C@H](N)C(=O)O` [L-asparagine], for which the Inhibition mode result is listed as “Competitive”.

In the case of `O=C(O)CC(=O)C(=O)O` [Oxaloacetic acid], the Inhibition mode entry is listed as “Product inhibition”.

For the molecule `NC(C(=O)O)C(=O)O` [2-aminomalonate], the Inhibition mode result was “Competitive”.

With `O=C(O)C(O)C(O)C(=O)O` (stereo not drawn) [Tartaric], the Inhibition mode entry is recorded as “Competitive”.

`N[C@@H](CC(=O)O)C(=O)O` [L-aspartate]: the Inhibition mode result is recorded as “Competitive”.

On to “phosphatidylinositol 4,5-bisphosphate [PIP2]”, for which the Inhibition mode result was “Inhibition (noncompetitive)”.

Regarding `N[C@@H](COS(=O)(=O)O)C(=O)O` [L-serine-O-sulfate], the Inhibition mode entry is “Competitive”.

For the molecule `N[C@@H](CSS(=O)(=O)O)C(=O)O` [L-cysteine-S-sulfate], the Inhibition mode entry is on record as “Competitive”.

For `O=C(O)C(Cl)(Cl)C(=O)O` [2,2-dichloromalonate], the Inhibition mode result is “Competitive”.

For the molecule `O=C(O)/C=C\C(=O)O` [Maleic], the Inhibition mode entry is listed as “Competitive”.

In the case of `O=C(O)C1CC1C(=O)O` (stereo not drawn) [1,2-cyclopropanedicarboxylic acid], the Inhibition mode entry is listed as “Competitive”.

As to `NC(CO)(CO)C(=O)O` [α-(hydroxymethyl)serine], the Inhibition mode result was “Substrate-product inhibition”.

For the molecule `O=C(O)C(CO)(CO)C(=O)O` [2,2-bis(hydroxymethyl)malonate], the Inhibition mode result was “Competitive”.

With `O=C(O)/C(O)=C(\O)C(=O)O` [Dihydroxyfumaric], the Inhibition mode entry is listed as “Competitive”.

Consider `O=C(O)C[C@H](O)C(=O)O` [L-malic], for which the Inhibition mode result is recorded as “Competitive”.

B1: DISC1: Disrupted-In-Schizophrenia-1 (protein, UniProt Q9NRI5 1-854, looked up)
Disrupted in schizophrenia 1 …: MPGGGPQGAPAAAGGGGVSHRAGSRDCLPPAACFRRRRLARRPGYMRSSTGPGIGFLSPAVGTLFRFPGGVSGEESHHSESRARQCGLDSRGLLVRSPVSKSAAAPTVTSVRGTSAHFGIQLRGGTRLPDRLSWPCGPGSAGWQQEFAAMDSSETLDASWEAACSDGARRVRAAGSLPSAELSSNSCSPGCGPEVPPTPPGSHSAFTSSFSFIRLSLGSAGERGEAEGCPPSREAESHCQSPQEMGAKAASLDGPHEDPRCLSRPFSLLATRVSADLAQAARNSSRPERDMHSLPDMDPGSSSSLDPSLAGCGGDGSSGSGDAHSWDTLLRKWEPVLRDCLLRNRRQMEVISLRLKLQKLQEDAVENDDYDKAETLQQRLEDLEQEKISLHFQLPSRQPALSSFLGHLAAQVQAALRRGATQQASGDDTHTPLRMEPRLLEPTAQDSLHVSITRRDWLLQEKQQLQKEIEALQARMFVLEAKDQQLRREIEEQEQQLQWQGCDLTPLVGQLSLGQLQEVSKALQDTLASAGQIPFHAEPPETIRSLQERIKSLNLSLKEITTKVCMSEKFCSTLRKKVNDIETQLPALLEAKMHAISGNHFWTAKDLTEEIRSLTSEREGLEGLLSKLLVLSSRNVKKLGSVKEDYNRLRREVEHQETAYETSVKENTMKYMETLKNKLCSCKCPLLGKVWEADLEACRLLIQSLQLQEARGSLSVEDERQMDDLEGAAPPIPPRLHSEDKRKTPLKVLEEWKTHLIPSLHCAGGEQKEESYILSAELGEKCEDIGKKLLYLEDQLHTAIHSHDEDLIQSLRRELQMVKETLQAMILQLQPAKEAGEREAAASCMTAGVHEAQA
On to B1, for which the Inhibition mode result is recorded as “Stabilises SR”.

B2: GRIP: glutamate receptor-interacting protein (protein, UniProt Q9Y3R0 1-1128, looked up)
Glutamate …: MIAVSFKCRCQILRRLTKDESPYTKSASQTKPPDGALAVRRQSIPEEFKGSTVVELMKKEGTTLGLTVSGGIDKDGKPRVSNLRQGGIAARSDQLDVGDYIKAVNGINLAKFRHDEIISLLKNVGERVVLEVEYELPPVSVQGSSVIFRTVEVTLHKEGNTFGFVIRGGAHDDRNKSRPVVITCVRPGGPADREGTIKPGDRLLSVDGIRLLGTTHAEAMSILKQCGQEAALLIEYDVSVMDSVATASGPLLVEVAKTPGASLGVALTTSMCCNKQVIVIDKIKSASIADRCGALHVGDHILSIDGTSMEYCTLAEATQFLANTTDQVKLEILPHHQTRLALKGPDHVKIQRSDRQLTWDSWASNHSSLHTNHHYNTYHPDHCRVPALTFPKAPPPNSPPALVSSSFSPTSMSAYSLSSLNMGTLPRSLYSTSPRGTMMRRRLKKKDFKSSLSLASSTVGLAGQVVHTETTEVVLTADPVTGFGIQLQGSVFATETLSSPPLISYIEADSPAERCGVLQIGDRVMAINGIPTEDSTFEEASQLLRDSSITSKVTLEIEFDVAESVIPSSGTFHVKLPKKHNVELGITISSPSSRKPGDPLVISDIKKGSVAHRTGTLELGDKLLAIDNIRLDNCSMEDAVQILQQCEDLVKLKIRKDEDNSDEQESSGAIIYTVELKRYGGPLGITISGTEEPFDPIIISSLTKGGLAERTGAIHIGDRILAINSSSLKGKPLSEAIHLLQMAGETVTLKIKKQTDAQSASSPKKFPISSHLSDLGDVEEDSSPAQKPGKLSDMYPSTVPSVDSAVDSWDGSAIDTSYGTQGTSFQASGYNFNTYDWRSPKQRGSLSPVTKPRSQTYPDVGLSYEDWDRSTASGFAGAADSAETEQEENFWSQALEDLETCGQSGILRELEEKADRRVSLRNMTLLATIMSGSTMSLNHEAPTPRSQLGRQASFQERSSSRPHYSQTTRSNTLPSDVGRKSVTLRKMKQEIKEIMSPTPVELHKVTLYKDSDMEDFGFSVADGLLEKGVYVKNIRPAGPGDLGGLKPYDRLLQVNHVRTRDFDCCLVVPLIAESGNKLDLVISRNPLASQKSIDQQSLPGDWSEQNSAFFQQPSHGGNLETREPTNTL
For the molecule B2, the Inhibition mode result is given as “Activation; binds to SR”.

B3: PICK1: protein interacting with C-kinase (protein, UniProt Q9NRD5 1-415, looked up)
PRKCA-binding protein: MFADLDYDIEEDKLGIPTVPGKVTLQKDAQNLIGISIGGGAQYCPCLYIVQVFDNTPAALDGTVAAGDEITGVNGRSIKGKTKVEVAKMIQEVKGEVTIHYNKLQADPKQGMSLDIVLKKVKHRLVENMSSGTADALGLSRAILCNDGLVKRLEELERTAELYKGMTEHTKNLLRAFYELSQTHRAFGDVFSVIGVREPQPAASEAFVKFADAHRSIEKFGIRLLKTIKPMLTDLNTYLNKAIPDTRLTIKKYLDVKFEYLSYCLKVKEMDDEEYSCIALGEPLYRVSTGNYEYRLILRCRQEARARFSQMRKDVLEKMELLDQKHVQDIVFQLQRLVSTMSKYYNDCYAVLRDADVFPIEVDLAHTTLAYGLNQEEFTDGEEEEEEEDTAAGEPSRDTRGAAGPLDKGGSWCDS
As for B3, the Inhibition mode entry is listed as “Inhibition; binds to SR”.

B4: Golga3: Golgin subfamily A member 3 (protein, UniProt Q08378 1-1498, looked up)
Golgin subfamily A member 3: MDGASAEQDGLQEDRSHSGPSSLPEAPLKPPGPLVPPDQQDKVQCAEVNRASTEGESPDGPGQGGLCQNGPTPPFPDPPSSLDPTTSPVGPDASPGVAGFHDNLRKSQGTSAEGSVRKEALQSLRLSLPMQETQLCSTDSPLPLEKEEQVRLQARKWLEEQLKQYRVKRQQERSSQPATKTRLFSTLDPELMLNPENLPRASTLAMTKEYSFLRTSVPRGPKVGSLGLPAHPREKKTSKSSKIRSLADYRTEDSNAGNSGGNVPAPDSTKGSLKQNRSSAASVVSEISLSPDTDDRLENTSLAGDSVSEVDGNDSDSSSYSSASTRGTYGILSKTVGTQDTPYMVNGQEIPADTLGQFPSIKDVLQAAAAEHQDQGQEVNGEVRSRRDSICSSVSLESSAAETQEEMLQVLKEKMRLEGQLEALSLEASQALKEKAELQAQLAALSTKLQAQVECSHSSQQRQDSLSSEVDTLKQSCWDLERAMTDLQNMLEAKNASLASSNNDLQVAEEQYQRLMAKVEDMQRSMLSKDNTVHDLRQQMTALQSQLQQVQLERTTLTSKLKASQAEISSLQSVRQWYQQQLALAQEARVRLQGEMAHIQVGQMTQAGLLEHLKLENVSLSQQLTETQHRSMKEKGRIAAQLQGIEADMLDQEAAFMQIQEAKTMVEEDLQRRLEEFEGERERLQRMADSAASLEQQLEQVKLTLLQRDQQLEALQQEHLDLMKQLTLTQEALQSREQSLDALQTHYDELQARLGELQGEAASREDTICLLQNEKIILEAALQAAKSGKEELDRGARRLEEGTEETSETLEKLREELAIKSGQVEHLQQETAALKKQMQKIKEQFLQQKVMVEAYRRDATSKDQLISELKATRKRLDSELKELRQELMQVHGEKRTAEAELSRLHREVAQVRQHMADLEGHLQSAQKERDEMETHLQSLQFDKEQMVAVTEANEALKKQIEELQQEARKAITEQKQKMRRLGSDLTSAQKEMKTKHKAYENAVGILSRRLQEALAAKEAADAELGQLRAQGGSSDSSLALHERIQALEAELQAVSHSKTLLEKELQEVIALTSQELEESREKVLELEDELQESRGFRKKIKRLEESNKKLALELEHEKGKLTGLGQSNAALREHNSILETALAKREADLVQLNLQVQAVLQRKEEEDRQMKHLVQALQASLEKEKEKVNSLKEQVAAAKVEAGHNRRHFKAASLELSEVKKELQAKEHLVQKLQAEADDLQIREGKHSQEIAQFQAELAEARAQLQLLQKQLDEQLSKQPVGNQEMENLKWEVDQKEREIQSLKQQLDLTEQQGRKELEGLQQLLQNVKSELEMAQEDLSMTQKDKFMLQAKVSELKNNMKTLLQQNQQLKLDLRRGAAKTRKEPKGEASSSNPATPIKIPDCPVPASLLEELLRPPPAVSKEPLKNLNSCLQQLKQEMDSLQRQMEEHALTVHESLSSWTPLEPATASPVPPGGHAGPRGDPQRHSQSRASKEGPGE
Take B4: the Inhibition mode result is given as “Increases SR levels”.
